# Laboratory results: patent US6335368B1, “Use of alverine for reducing wrinkles” (Societe L'Oreal S.A., priority 1999, dated 2002)
# Like-named read-outs stand apart in the source and are kept apart here.
# System: phrenic nerve/diaphragm isolated from rat (striated muscle)
# Assay: Nerve/muscle junction (motor plate) model: isolated rat phrenic nerve/diaphragm preparation
# Type: cell-based
# Conditions: for inhibition at 100 µM: Rattus norvegicus
# Description: Activity of Alverine in a model of nerve/muscle junction (motor plate) measured in a preparation of phrenic nerve/diaphragm isolated from rat (striated muscle) (Pollard B. J. et al, Br. J. Anaesth., 1988, 61, 419-424). The phrenic nerve and the diaphragm are carefully isolated and placed in a 50 ml tank filled with survival fluid (Krebs-Henseleit fluid) maintained at a temperature of 37° C. and oxygenated using an oxygen/CO2 mixture (95/5). The variations in tension of the diaphragm are recorded with an initial preload of several grams. After a relaxation period of 30 min., the diaphragm is stimulated indirectly via the phrenic nerve. On each preparation, the effect of the test products was evaluated in a first stage as regards the contractions induced by indirect stimulation via stimulation of the phrenic nerve (0.1 to 0.5 volts, 0.3 ms, 0.1 Hz) at increasing and cumulative concentrations from 10^−9 M to 10^−4 M. In the event of an effect at the end of the test, the diaphragm is stimulated directly in order to determine whether or not the inhibition of the neurotransmission results from a pre-junctional blockage or a post-junctional blockage.
compound,measurement,setting,value
"CCN(CCCc1ccccc1)CCCc1ccccc1 [Alverine, di(phenylpropyl)ethylamine]",inhibition of contractions induced by the indirect stimulations,10^−4 M,completely inhibits
same,inhibition at 100 µM,"10^−4 M Alverine, contractions induced by indirect stimulation via phrenic nerve, 1st study, read-out: % of inhibition, indirect stimulation",100%
same,inhibition at 100 µM,"10^−4 M Alverine, contractions induced by indirect stimulation via phrenic nerve, 2nd study, read-out: % of inhibition, indirect stimulation",100%
same,inhibition at 100 µM,"10^−4 M Alverine, direct stimulation of the diaphragm, 1st study, read-out: % of inhibition, direct stimulation",61.4%
same,inhibition at 100 µM,"10^−4 M Alverine, direct stimulation of the diaphragm, 2nd study, read-out: % of inhibition, direct stimulation",42.2%
same,inhibition at 100 µM,"10^−4 M, read-out: inhibition of contractions induced by the direct stimulations",~50%
